Laboratory results taken from patent EP0546475A1, “Biologically active pseurotin A and D, new metabolites from Aspergillus fumigatus, process for their preparation and their use as apomorphine antagonists” (HOECHST AKTIENGESELLSCHAFT, priority 1991, dated 1993).

Legend:
[1] = Solubility in organic solvents; type: physicochemical; settings: in CH2C12, CHCl3, Essigsäureethylester, Aceton, Ethanol und Isopropanol; isolated as amorphous solid
Text: Die Pseurotine A und D wurden als amorpher Feststoff isoliert und sind z.B. löslich in CH2C12, CHCl3, Essigsäureethylester, Aceton, Ethanol und Isopropanol.

[2] = test system: durch Apomorphin verursachten Kletterns; experiment: Inhibition of apomorphine-induced climbing in mice (apomorphine antagonism); type: in vivo, Mäusen; settings: test substance given 30 min (i.p.) or 60 min (p.o.) before apomorphine, dose of test substance not given
Procedure: Test auf biologische Aktivität von Pseurotin A und D: • Die Wirkung der Verbindungen der Formel I und 11 als Apomorphin Antagonisten wird an Mäusen getestet. Hierzu wird zunächst Apomorphin als 1 %ige Lösung (Verdünnungsmittel: Tylose, z. B. Methocel, Hoechst AG, Frankfurt, Deutschland)) einmalig […] injiziert. Die Dosis ist so gewählt, daß sie bei 95 % der Mäuse für ca. 30 Minuten eine anhaltende Klettertätigkeit auslöst (1,5 mg Apomorphin/kg Maus; subcutane Injektion). Tiere, die noch vor der Apomorphingabe eine konstante Klettertätigkeit aufweisen, werden nicht im Test berücksichtigt. Pseurotin A und/oder D wird 30 bzw. 60 Min. vor Apomorphin appliziert (i.p. bzw. p.o.). Es wird viermal abgelesen: unmittelbar vor sowie 10,20 und 30 Min. nach Apomorphin-Injektion. Dabei wird das Kletterverhalten pro Maus beurteilt: • Testkriterium ist, ob eine Hemmung des durch Apomorphin verursachten Kletterns eintritt.

[3] = Stability in the solid state and in solution; type: physicochemical; settings: for Stabilität im festen Zustand: solid state; for Stabilität in Lösungen: solutions, pH range between 3 and 8, in particular 5 and 7
Text: Die Verbindungen der Formel 1 oder 11 ist im festen Zustand und in Lösungen im pH-Bereich zwischen 3 und 8, insbesondere 5 und 7, stabil und läßt sich damit in übliche galenische Zubereitungen einarbeiten.

[4] = 10 min after apomorphine (1,5 mg Apomorphin/kg Maus), seen in the majority (Mehrzahl) of treated mice
[5] = 20 min after apomorphine (1,5 mg Apomorphin/kg Maus)

Row | Structure (SMILES) | Löslichkeit [1] | Kletterverhalten pro Maus (Hemmung des durch Apomorphin verursachten Kletterns) [2, 4] | Kletterverhalten pro Maus (Hemmung des durch Apomorphin verursachten Kletterns) [2, 5] | Stabilität im festen Zustand [3] | Stabilität in Lösungen [3]
1 | CC/C=C\[C@H](O)[C@H](O)C1=C(C)C(=O)[C@]2(O1)C(=O)N[C@@](OC)(C(=O)c1ccccc1)[C@@H]2O [Pseurotin A] | löslich | nur noch 1 oder 2 Pfoten an der Wand | nahezu alle Tiere deutliche Symptome in Form der Kletterhemmung (4 Pfoten am Boden) | stabil | stabil
2 | CCC(O)C=C[C@H](O)C1=C(C)C(=O)[C@]2(O1)C(=O)N[C@@](OC)(C(=O)c1ccccc1)[C@@H]2O (stereo partly shown) [Pseurotin D] | löslich | nur noch 1 oder 2 Pfoten an der Wand | nahezu alle Tiere deutliche Symptome in Form der Kletterhemmung (4 Pfoten am Boden) | stabil | stabil
